Results as given in PubChem BioAssay (NCI).
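1) Cells in 96-well plates. 2) Compound, 48 h, 5 concentrations. 3) Linear interpolation between surrounding doses. 4) Unreached endpoint = highest concentration. GI50: concentration for 50% inhibition of growth. TGI: concentration producing complete growth inhibition.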

Tests used:
Experiment in all cases: inhibition of tumour cell growth, NCI panel, 48 h
[1] = tested on: U251 CNS
[2] = tested on: MALME-3M melanoma
[3] = tested on: COLO 205 colon
[4] = tested on: HOP-62 NSCLC
[5] = tested on: SR leukemia
[6] = tested on: BT-549 breast
[7] = tested on: TK-10 renal
[8] = tested on: T-47D breast
[9] = tested on: SK-OV-3 ovarian
[10] = tested on: UO-31 renal
[11] = tested on: RXF 393 renal
[12] = tested on: SF-295 CNS
[13] = tested on: HL-60(TB) leukemia
[14] = tested on: NCI/ADR-RES ovarian
[15] = tested on: 786-0 renal
[16] = tested on: HCT-116 colon
[17] = tested on: SN12C renal
[18] = tested on: CAKI-1 renal
[19] = tested on: OVCAR-8 ovarian
[20] = tested on: EKVX NSCLC
[21] = tested on: SF-539 CNS
[22] = tested on: UACC-62 melanoma
[23] = tested on: MDA-MB-231 breast
[24] = tested on: ACHN renal
[25] = tested on: HS 578T breast
[26] = tested on: HCT-15 colon
[27] = tested on: A498 renal
[28] = tested on: HOP-92 NSCLC
[29] = tested on: KM12 colon
[30] = tested on: MCF7 breast
[31] = tested on: PC-3 prostate
[32] = tested on: MOLT-4 leukemia
[33] = tested on: SNB-75 CNS
[34] = tested on: OVCAR-5 ovarian
[35] = tested on: NCI-H460 lung
[36] = tested on: SF-268 CNS
[37] = tested on: CCRF-CEM leukemia
[38] = tested on: SK-MEL-5 melanoma
[39] = tested on: M14 melanoma
[40] = tested on: HT29 colon
[41] = tested on: SNB-19 CNS
[42] = tested on: K-562 leukemia
[43] = tested on: A549 NSCLC
[44] = tested on: RPMI-8226 leukemia
[45] = tested on: NCI-H23 lung
[46] = tested on: SK-MEL-2 melanoma
[47] = tested on: UACC-257 melanoma
[48] = tested on: HCC-2998 colon
[49] = tested on: NCI-H226 lung
[50] = tested on: SW-620 colon
[51] = tested on: NCI-H522 lung
[52] = tested on: SK-MEL-28 melanoma
[53] = tested on: IGROV1 ovarian
[54] = tested on: OVCAR-4 ovarian
[55] = tested on: DU-145 prostate
[56] = tested on: MDA-MB-435

With `O=C(Nc1ccc(F)cc1)c1cc(-c2ccc(F)cc2F)ccc1O` the GI50 [1] was 3.23 µM, the TGI [1] was 24.6 µM and the GI50 [2] was 1.92 µM. For the same compound, the TGI [2] was 5.64 µM, the GI50 [3] was 17.1 µM and the TGI [3] was 50.1 µM. It also gave a GI50 [4] of 3.13 µM, a TGI [4] of 17.1 µM and a GI50 [5] of 2.93 µM. For the same compound, the TGI [5] was 80.3 µM, the GI50 [6] was 2.78 µM and the TGI [6] was 18.6 µM. For the same compound, the GI50 [7] was 2.91 µM, the TGI [7] was 23.2 µM and the GI50 [8] was 1.75 µM. The TGI [8] was 8.14 µM, the GI50 [9] was 2.65 µM and the TGI [9] was 8.99 µM. The GI50 [10] was 2.11 µM, the TGI [10] was 8.67 µM and the GI50 [11] was 2.75 µM. The TGI [11] was 8.04 µM, the GI50 [12] was 2.44 µM and the TGI [12] was 7.55 µM. For the same compound, the GI50 [13] was 1.93 µM, the TGI [13] was 5.04 µM and the GI50 [14] was 2.49 µM. For the same compound, the TGI [14] was 8.51 µM, the GI50 [15] was 3.31 µM and the TGI [15] was 16.7 µM. The GI50 [16] was 2.81 µM, the TGI [16] was 12.6 µM and the GI50 [17] was 2.36 µM. The TGI [17] was 8.3 µM, the GI50 [18] was 1.95 µM and the TGI [18] was 6 µM. The GI50 [19] was 3.2 µM, the TGI [19] was greater than 100 µM and the GI50 [20] was 2.61 µM. The TGI [20] was 9.17 µM, the GI50 [21] was 3.65 µM and the TGI [21] was 18.5 µM. For the same compound, the GI50 [22] was 1.39 µM, the TGI [22] was 4.61 µM and the GI50 [23] was 2.38 µM. It also gave a TGI [23] of 6.47 µM, a GI50 [24] of 2.77 µM and a TGI [24] of 8.51 µM. The GI50 [25] was 2.79 µM, the TGI [25] was 9.62 µM and the GI50 [26] was 2.89 µM. For the same compound, the TGI [26] was 13 µM, the GI50 [27] was 1.47 µM and the TGI [27] was 4.13 µM. It also gave a GI50 [28] of 1.47 µM, a TGI [28] of 5.24 µM and a GI50 [29] of 3.03 µM. The TGI [29] was 9.93 µM, the GI50 [30] was 2.31 µM and the TGI [30] was 10.1 µM. It also gave a GI50 [31] of 2.78 µM, a TGI [31] of 19.8 µM and a GI50 [32] of 2.57 µM. The TGI [32] was 7.9 µM, the GI50 [33] was 1.84 µM and the TGI [33] was 5.55 µM. The GI50 [34] was 3.37 µM, the TGI [34] was 37.8 µM and the GI50 [35] was 2.98 µM. It also gave a TGI [35] of 12.8 µM, a GI50 [36] of 2.67 µM and a TGI [36] greater than 100 µM. The GI50 [37] was 3.29 µM, the TGI [37] was greater than 100 µM and the GI50 [38] was 1.56 µM. The TGI [38] was 3.63 µM, the GI50 [39] was 3.32 µM and the TGI [39] was greater than 100 µM. The GI50 [40] was 12.7 µM, the TGI [40] was greater than 100 µM and the GI50 [41] was 3.36 µM. The TGI [41] was 31.9 µM, the GI50 [42] was 2.81 µM and the TGI [42] was greater than 100 µM. It also gave a GI50 [43] of 3.25 µM, a TGI [43] greater than 100 µM and a GI50 [44] of 1.74 µM. For the same compound, the TGI [44] was 6.38 µM, the GI50 [45] was 2.47 µM and the TGI [45] was 7.78 µM. It also gave a GI50 [46] of 1.86 µM, a TGI [46] of 5.57 µM and a GI50 [47] of 1.61 µM. The TGI [47] was 6.97 µM, the GI50 [48] was 3.12 µM and the TGI [48] was 42.8 µM. It also gave a GI50 [49] of 2.88 µM, a TGI [49] of 9.82 µM and a GI50 [50] of 3.4 µM. For the same compound, the TGI [50] was greater than 100 µM, the GI50 [51] was 1.83 µM and the TGI [51] was 8.3 µM. For the same compound, the GI50 [52] was 2.9 µM, the TGI [52] was greater than 100 µM and the GI50 [53] was 3.45 µM. For the same compound, the TGI [53] was greater than 100 µM, the GI50 [54] was 2.74 µM and the TGI [54] was 45.5 µM. The GI50 [55] was 3.33 µM and the TGI [55] was greater than 100 µM.
For `Cc1ccc(NC(=O)c2ccc(CN3CCN(C)CC3)c(C(F)(F)F)c2)cc1Oc1ccc(-c2[nH]nc3ncnc(N)c23)cc1`, the GI50 [56] was 1.61 µM, the TGI [56] was 3.34 µM and the GI50 [3] was 7.29 µM. It also gave a TGI [3] of 25.2 µM, a GI50 [4] of 2.26 µM and a TGI [4] of 5.14 µM. It also gave a GI50 [7] of 32.4 µM, a TGI [7] of 63.3 µM and a GI50 [8] of 2.61 µM. For the same compound, the TGI [8] was 7.17 µM, the GI50 [9] was 23.5 µM and the TGI [9] was 56.5 µM. The GI50 [12] was 8.51 µM, the TGI [12] was 44.1 µM and the GI50 [13] was 6.42 µM. It also gave a TGI [13] of 78.5 µM, a GI50 [14] of 3.08 µM and a TGI [14] of 12.9 µM. For the same compound, the GI50 [16] was 1.89 µM, the TGI [16] was 4.35 µM and the GI50 [17] was 3.68 µM. For the same compound, the TGI [17] was 18.7 µM, the GI50 [18] was 9.05 µM and the TGI [18] was 29.7 µM. For the same compound, the GI50 [20] was 2.01 µM, the TGI [20] was 4.19 µM and the GI50 [21] was 1.16 µM. It also gave a TGI [21] of 2.5 µM, a GI50 [22] of 2.02 µM and a TGI [22] of 4.81 µM. It also gave a GI50 [24] of 1.73 µM, a TGI [24] of 3.18 µM and a GI50 [25] of 4.97 µM. For the same compound, the TGI [25] was 42.8 µM, the GI50 [26] was 1.57 µM and the TGI [26] was 3.29 µM. It also gave a GI50 [27] of 18.4 µM, a TGI [27] of 42.9 µM and a GI50 [29] of 1.6 µM. It also gave a TGI [29] of 3.67 µM, a GI50 [32] of 2.03 µM and a TGI [32] of 7.31 µM. For the same compound, the GI50 [33] was 0.419 µM, the TGI [33] was 24 µM and the GI50 [34] was 1.97 µM. The TGI [34] was 3.66 µM, the GI50 [35] was 1.84 µM and the TGI [35] was 3.59 µM. The GI50 [36] was 3.77 µM, the TGI [36] was 30.2 µM and the GI50 [38] was 1.67 µM. For the same compound, the TGI [38] was 3.09 µM, the GI50 [39] was 1.72 µM and the TGI [39] was 4.28 µM. The GI50 [42] was 0.713 µM, the TGI [42] was greater than 100 µM and the GI50 [43] was 2.18 µM. The TGI [43] was 5.36 µM, the GI50 [46] was 23.2 µM and the TGI [46] was 81.7 µM. It also gave a GI50 [47] of 2.51 µM, a TGI [47] of 5.8 µM and a GI50 [49] of 18 µM. For the same compound, the TGI [49] was 72.9 µM, the GI50 [50] was 1.97 µM and the TGI [50] was 3.69 µM. It also gave a GI50 [51] of 3.04 µM, a TGI [51] of 9.35 µM and a GI50 [52] of 1.74 µM. The TGI [52] was 3.39 µM, the GI50 [54] was 18.7 µM and the TGI [54] was 42 µM. For the same compound, the GI50 [55] was 1.83 µM and the TGI [55] was 3.47 µM.
